Experimental data from patent US6921775B2, “Methods for modulating brain damage” (Children's Medical Center Corporation, priority 2001, dated 2005).

Key:
[1] = test system: OL precursor cells; test: Kainate-induced excitotoxicity in OL precursor cultures (trypan blue cell viability); format: cell-based, rat; conditions: 300 μM kainate; for concentration giving significant reduction of kainate-induced cell death: cell survival assessed 24 hr later
Method: Primary oligodendrocyte precursor cells were isolated from mixed glial cultures of the forebrains of newborn Sprague-Dawley rats using a selective detachment procedure as described in detail elsewhere (McCarthy and de Vellis, 1980; Back et al., 1998), and further purified by differential adhesion (Back et al., 1998). Precursor cells were maintained in a chemically-defined medium (CDM) supplemented with recombinant human platelet derived growth factor-AA (PDGF, 10 ng/ml) and basic fibroblast growth factor (bFGF, 10 ng/ml). The CDM was Dulbecco Modified Eagle's Medium (DMEM) containing D-glucose (25 mM), L-glutamine (4 mM), sodium pyruvate (1 mM), human apo-transferrin (50 μg/ml), bovine pancreatic insulin (5 μg/ml), sodium selenium (30 nM), hydrocortisone (10 nM), D-biotin (10 nM), and bovine serum albumin (BSA, 1 mg/ml). All chemicals were from Sigma. Precursor cells were maintained in the presence of growth factors (PDGF+bFGF) by refeeding with fresh medium every 48 hr for 7 days, to promote cell proliferation and prevent differentiation (Bogler et al., 1990). Experiments were performed with cultures maintained in CDM without the supplemental growth factors. These cultures were routinely characterized by immunochemical detection of cell-specific markers as described before (Back et al., 1998). Cultures at the beginning of experiments usually consisted of approximately 90% A2B5^+ oligodendrocyte precursors and less than 5% glial fibrillary acidic protein (GFAP)-positive astrocytes. Cells were plated on poly-DL-ornithine-coated 24-well plates for cell viability assays and on coated glass coverslips for immunocytochemistry, proliferation studies, and lineage analysis. Kainic acid (Sigma-RBI) were first dissolved in 0.1N HCl, and cyclothiazide (Sigma) in 0.1N NaOH, then added to culture medium to the desired final concentration. The pH of the culture media was maintained at 7.4. Topiramate (RWJ Pharmaceutical Research Institute) and NBQX (Sigma-RBI) were directly dissolved in culture medium and applied 10 min prior to exposure of the cells to kainate or oxygen-glucose deprivation (OGD). Following exposure to kainate or OGD for 24 hr, cell death was quantitatively assessed using the trypan blue exclusion method (Perry et al., 1997). Cells in 5-7 adjacent fields (×200) per well were counted to determine cell survival. At least 1000 cells per condition were counted in control cultures. The mean±SEM values for each experimental group were obtained from at least three separate experiments, and each was performed in triplicate. […] OGD has been previously shown to cause non-NMDA receptor-mediated ischemic cell death in a similar culture model (Fern and Moller, 2000). […] Cell survival was assessed 24 hr later.

[2] = test system: calcium permeable AMPA/kainate receptors; test: AMPA induced cobalt uptake in coronal brain slices; format: cell-based; conditions: P7 rat slices, 100 μM AMPA, 100 μM MK-801, 20 minute
Source text: P6/7 Long Evans rat pups were sacrificed by decapitation and the brains were removed quickly and placed in ice cold rat ACSF. 300 μm coronal slices were cut on a live-slice dedicated vibratome while continually maintained in oxygen bubbled, cold ACSF. Slices were transferred to an oxygen chamber, where they were maintained at room temperature.
300 μm thick vibratome cut coronal slices were collected from the anterior commissure to the anterior aspect of the thalamus and placed in oxygen-rich ice cold rat ACSF. Stabilized slices were transferred to a room temperature oxygen chamber and maintained in ACSF. Stable slices were transferred to modified ACSF containing low calcium and 5 mM CoCL2 and stimulated with 100 μM AMPA in the presence of 100 μM MK-801 and with or without topiramate in varying concentrations. Slices were incubated at room temperature for 20 minutes then rinsed in ACSF, followed by 3 rinses in ASCF containing 2 mM EDTA to chelate and remove any unbound cobalt. Cobalt was then precipitated with ammonium […]. Sections were fixed in 4% paraformaldehyde for 10 minutes, rinsed and stored in PBS. Silver enhancement of precipitate was carried out for improved visualization. Slices were transferred to enhancement solution (10% sucrose, 15.5 mM hydroquinone, 42 mM citric acid) and warmed to 50° C. Slices were moved to similar solution containing 0.1% silver nitrate, then incubated at 50° C. for 45 minutes, with solution changes every 15 minutes. Sections were rinsed in PBS then cryoprotected in 30% sucrose solution and 40 μm sections, cut using a freezing microtome, were mounted on slides and analyzed.
Cortical slices were assessed for the presence of AMPA induced cobalt uptake in coronal slices from P7 rats. […] Immature OLs in pericallosal white matter at P7 show consistent cobalt uptake following 20 minute incubation with 100 μM AMPA, 100 μM MK-801 in low Ca^2+, cobalt containing rat ACSF (FIG. 6B). Cobalt-containing white matter cells were identified as OL precursors by immunolabeling with O4 surface antigen (FIG. 6C and FIG. 6D). […]

[3] = 100 μM NBQX or 50 μM topiramate

Row | SMILES | protection against kainate-induced cell death at 50 μM ([1]; 50 μM NBQX, 24 hr) | concentration giving significant reduction of kainate-induced cell death [1] [µM] | cobalt uptake in immature OLs of pericallosal white matter [2, 3] | cell survival ([1]; topiramate 50-100 μM, 24 hr) | cobalt uptake in immature OLs of pericallosal white matter ([2]; 10 μM topiramate)
1 | NS(=O)(=O)c1cccc2c1c([N+](=O)[O-])cc1nc(O)c(O)nc12 [NBQX, 2,3-Dioxo-6-nitro-1,2,3,4-tetrahydrobenzo[f]quinoxaline-7-sulphonamide] | fully protective | ≥ 10 | effectively blocked |  | 
2 | CC1(C)O[C@@H]2[C@@H](CO[C@@]3(COS(N)(=O)=O)OC(C)(C)O[C@@H]23)O1 [topiramate] |  | ≥ 30 | effectively blocked | approximately 70% | partial effect
